Results taken from patent US10208007B2, “Use of strigolactones and strigolactone analogs for treating proliferative conditions” (The State of Israel, Ministry of Agriculture & Rural …, priority 2011, dated 2019).
“And” between values parts separate entries of the source, which are not always exact repeats. Equal entries are not always repeated.

Assays:
ALDH1 = assay: Aldefluor ALDH expression; format: cell-based, human; conditions: MCF-7 primary mammospheres; reduced from 6%
Method: MCF-7 mammospheres were trypsinized, gently vortexed and passed through a 40 uM cell filter to produce single cell suspensions. Cells (5×10^5) were washed and re-suspended in growth media (Lonza). To identify the Aldefluor-stained cell population with ALDH1 enzymatic activity, the Aldefluor kit (Stem Cell Technologies), which is designed for optimal identification and isolation of stem cells through specific interaction with human ALDH1 was used. Briefly, cells were suspended in Aldefluor assay buffer containing uncharged ALDH1-substrate, BODIPY-aminoacetaldehyde (BAAA), and incubated for 45 min at 37° C., with gently vortexing every 15 min. BAAA is taken up by living cells through passive diffusion and then converted by intracellular ALDH into a negatively charged reaction product BODIPY-aminoacetate, which is retained inside cells expressing high levels of ALDH1, causing the cells to become brightly fluorescent. Fluorescent ALDH1-expressing cells were detected in the green fluorescence channel (520-540 nm) of a FACScan instrument (BD Biosciences). […] PI (Sigma) fluorescence was detected using the orange fluorescence channel. Cells incubated with BAAA and DEAB were used to establish the baseline fluorescence of cells and ALDH1-positive fraction. Data were analyzed by using Cell Quest software (BD Biosciences). […]

[1] = test system: breast cancer cells both luminal (estrogen receptor positive) and basal (estrogen receptor negative); assay: IC50 by number of cells per well versus control cultures; format: cell-based
Method: The IC50 values are defined herein as that concentration of active ingredient at which the number of cells per well at the end of the incubation period is only 50% of the number of cells in the control cultures. The IC50 values thus determined are, for the compounds of formula II, approximately from 0.1 to 50 μmoliliter.

MDA-MB-231 cells = assay: Hoechst 33342 staining; format: cell-based, human; conditions: 48 hours
Method: MDA-MB-231 cells were seeded out into 96 well plates in triplicate at 3000 cell per well. […] After 48 hours, the medium was aspirated off and 100 μl of Hoechst dye (2 μg/ml), diluted with the medium, was added to the cells and incubated for 15 minutes. Stained cells were observed under a fluorescence microscope (Zeiss 5 Instruments, Thornwood, N.Y.).

HCT116 cells = assay: Annexin V / PI staining; format: cell-based, human; conditions: 48 hours, from 3.6%
Method: Cells were cultured for 48 hours under the same conditions as those used for the DNA content/cell cycle analysis. All the cells were collected and resuspended in 100 μl 1× Annexin V Binding Buffer (BD Biosciences, San Jose, Calif., USA). 2 μl FITC-Annexin V (BD Biosciences) was added and incubated for 10 min in the dark (room temperature). Cells were then stained with PI (Sigma, Saint Louis, Mo., USA) to a final concentration of 5 μg/ml and the cells were incubated at room temperature for 15 min in the dark. Then, 400 μl of Annexin V binding buffer were added and flow cytometry was performed using a BD FACSCalibur flow cytometer. Cells were considered to be apoptotic if they were Annexin V+/PI− (early apoptotic) and Annexin V+/PI+ (late apoptotic). Each analysis was performed using at least 20,000 events.
Chromosome condensation at mitosis is accompanied by phosphorylation of histone H3. Accordingly, in order to determine if cells were arresting at G2 or M phase, HCT116 cells were analyzed for pS10 Histone H3 following strigolactone analogs exposure. […] To further quantify whether the growth inhibition observed in-vitro following strigolactone treatment was due in part to apoptosis, HCT116 cells were dual stained with Annexin V and PI (Prodidium Iodide). Annexin V staining indicate the inversion of the inner leaflet of the plasma membrane an early event of apoptosis. Late apoptosis is characterized by loss of membrane integrity and cells become permeable to PI. […] Cells were incubated for 48 hours and then co-stained with annexin-V and PI (FIG. 12F). Following treatment with 10 ppm and 15 ppm MEB-55, the percentage of late apoptotic cell increased from 3.6% to 62% and 85% respectively (FIG. 12F, lower panel). […] Dual Annexin V/PI staining analysis was also carried out on two other colon cancer cell lines, (SW480, HT29) following strigolactone treatment. Increased apoptosis was also observed in these lines following MEB-55 treatment in a dose dependent manner (FIG. 12D).

DU145 = assay: Cell cycle analysis with strigolactone removal; format: cell-based, human; conditions: for G2/M fraction: 24 hours, from 18%; for G2/M fraction 48 hours following removal: vehicle control 28.5%
Method: Adherent cells were trypsinyzed, washed twice with PBS and filtered through a […] cell sieve. DNA content was assessed by flow cytometry. Cells were seeded at densities of 1.5×10^5 cells (MDA-MB-231, MDA-MB-436), or 4×10^5 cells (MCF-7 and MCF10A), or 2×10^5 cells (SW480, HT-29), or 5×10^5 cells (HCT116), per well in DMEM with 10% FBS in 6-well plate culture dishes. […] After 48 hours, cells were washed twice with PBS (pH 7.4), centrifuged at 360 g for 10 minutes at 4° C., and fixed in chilled ethanol (70%; v/v in PBS) with gentle vortex mixing. To determine their DNA contents, the cells were stained with 40 μg/ml propidium iodide (hereinafter PI) and analyzed using a FACSCalibur flow cytometer and CellQuest analysis software (Becton Dickinson, San Jose, Calif.). Where phosphoHistone-H3 staining was carried out, cells were incubated with polyclonal antibody against phosphoHistone H3 and then with secondary Goat anti-rabbit IgG-conjugated to FITC prior to PI staining.
To determine whether the strigolactone analogs induced G2 arrest, is also reversible upon strigolactone removal, DU145 cells were treated with MEB-55 for 24 hours, washed twice in PBS and then over-layed with fresh growth media minus MEB-55 and incubated for a further 48 hours (FIG. 17G).

CC1=C[C@H](O/C=C2/C(=O)O[C@@H]3c4ccccc4C[C@H]23)OC1=O (relative stereo) [GR-24, (3aR*,8bS*,E)-3-(((R*)-4-methyl-5-oxo-2,5-dihydrofuran-2-yloxy)methylene)-3,3a,4,8b-tetrahydro-2H-indeno[1,2-b]furan-2-one]
ALDH activity (ALDH positive cells) after treatment (ALDH1): 2% | IC50 value [1]: in the range of micromolar concentration

CC1=CC(O/C=C2/C(=O)c3c(c4cc(-c5scc6c5OCCO6)ccc4n3C)C2C)OC1=O (stereo not drawn) [ST-362, (2E)-2-[(2,5-dihydro-4-methyl-5-oxofuran-2-yloxy)methylene]-1,2-dihydro-7-(2,3-dihydrothieno[3,4-b][1,4]dioxin-7-yl)-1,4-dimethyl-cyclopenta[b]indole-3-(4H)-one]
Concentrations resulting in increased nuclear condensation and fragmentation (indicative of apoptosis) (MDA-MB-231 cells): 10-15 ppm and 5-10 ppm

CC1=CC(O/C=C2\Cc3c(n(C)c4cc(-c5cccs5)ccc34)C2=O)OC1=O (racemic) [MEB-55, (±) 2E-4-methyl-2-(4-methyl-5-oxo-2,5-dihydrofuran-2-yloxymethylene)-6-thiophen-2-yl-1,4-dihydro-2H-cyclopenta[b]indol-3-one]
Percentage of late apoptotic cells (Annexin V+/PI+) (HCT116 cells; 10 ppm): 62% | Percentage of late apoptotic cells (Annexin V+/PI+) (HCT116 cells; 15 ppm): 85% | G2/M fraction (DU145; DU145, 5 ppm): 46% | G2/M fraction 48 hours following removal (DU145; DU145, 5 ppm): 29% | G2/M fraction (DU145; DU145, 10 ppm): 50% | G2/M fraction 48 hours following removal (DU145; DU145, 10 ppm): 29%
